One data set can be described thus: Stability in MeOH. Format: physicochemical. Particulars: 500 μM. The procedure:
(§1) For the stability measurements in polar solvents, each compound was dissolved at room temperature in MeOH or PBS (0.025 M, pH 7.4) up to a final concentration of 500 μM.

Another data set deals with T1, PARP10 (Homo sapiens, UniProt Q53GL7).
T1 construct: made in house
T1 sequence (Q53GL7 1-1025): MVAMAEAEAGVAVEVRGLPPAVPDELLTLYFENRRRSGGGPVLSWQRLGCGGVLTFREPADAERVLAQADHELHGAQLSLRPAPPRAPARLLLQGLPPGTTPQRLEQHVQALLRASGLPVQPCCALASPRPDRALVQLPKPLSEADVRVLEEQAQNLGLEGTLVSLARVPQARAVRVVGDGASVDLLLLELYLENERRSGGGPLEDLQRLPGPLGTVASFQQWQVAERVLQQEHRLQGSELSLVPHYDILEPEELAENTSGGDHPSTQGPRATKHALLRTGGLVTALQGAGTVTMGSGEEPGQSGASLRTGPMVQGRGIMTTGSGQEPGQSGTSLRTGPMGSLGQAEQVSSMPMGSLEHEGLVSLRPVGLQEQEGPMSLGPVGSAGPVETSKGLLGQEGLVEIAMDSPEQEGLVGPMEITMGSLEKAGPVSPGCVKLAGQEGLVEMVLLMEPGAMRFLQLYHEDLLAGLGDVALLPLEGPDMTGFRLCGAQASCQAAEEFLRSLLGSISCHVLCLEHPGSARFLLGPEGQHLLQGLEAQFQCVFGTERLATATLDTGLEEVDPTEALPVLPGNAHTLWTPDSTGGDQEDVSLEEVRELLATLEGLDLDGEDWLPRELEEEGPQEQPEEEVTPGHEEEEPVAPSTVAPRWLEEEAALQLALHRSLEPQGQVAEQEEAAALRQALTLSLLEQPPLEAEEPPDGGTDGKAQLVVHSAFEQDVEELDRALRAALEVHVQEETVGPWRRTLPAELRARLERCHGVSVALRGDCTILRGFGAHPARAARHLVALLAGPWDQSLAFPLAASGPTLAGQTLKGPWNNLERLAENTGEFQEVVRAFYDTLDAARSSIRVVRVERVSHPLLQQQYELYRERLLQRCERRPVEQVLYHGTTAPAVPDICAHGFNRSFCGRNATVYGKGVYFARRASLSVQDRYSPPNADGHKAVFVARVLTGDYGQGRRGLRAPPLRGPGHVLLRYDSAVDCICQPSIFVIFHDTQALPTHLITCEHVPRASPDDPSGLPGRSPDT
The data set is described as follows: Cellular MARylation assay (immunoblot of PARP10 auto-MARylation). Format: cell-based. Particulars: 10 μM, 16 h, HeLa cells. The procedure: Cells were lysed in RIPA lysis buffer [10 mM Tris pH 7.4; 150 mM NaCl; 1% NP-40; 1% desoxycholate; 0,1% SDS; protease inhibitor cocktail (Sigma-Aldrich) and 10 μM olaparib (Selleck Chemicals)], and lysates were analyzed via SDS-PAGE and immunoblotting using specific anti-PARP10 (Eurogentec),[93] anti-MAR/PAR (Cell Signaling, E6F6A, anti-poly/Mono-ADP-ribose antibody), and anti-α-tubulin (B 5-1-2, Sigma-Aldrich) antibodies.
For orientation: In western blotting, separated proteins are transferred to a membrane and probed.

Data set [1] in a line: PAMPA, blood brain barrier (BBB) permeability. It is filed as in vitro ADME. To be noted: brain polar lipid; for Papp at 5 h, 500 μM: pH 7.4, 5 h. The procedure: Each “donor solution” was prepared from a solution of the appropriate compound (DMSO, 1 mM) diluted with phosphate buffer (pH 7.4, 0.025 M) up to a final concentration of 500 μM. […] Donor solution (150 μL) was added to each well of the filter plate and to each well of the acceptor plate was added 300 μL of solution (50% DMSO in phosphate buffer). The sandwich plate was assembled and incubated for 5 h at r.t. After the incubation time, the plates were separated, and the samples were taken from both the donor and acceptor wells, and the amount of compound was measured by UV/LC–MS. All compounds were tested in three independent experiments. […] Drug concentration is estimated by using the peak area integration. Membrane retentions (%) were calculated according to the following equation [drawing 2] where r is the ratio between drug concentration in the acceptor and equilibrium concentration and D, A, and Eq represent drug concentration in the donor, acceptor, and equilibrium solution, respectively.

The nature of data set [2]: Stability in human plasma. Format: in vitro ADME. To be noted: 37 °C. On the procedure:
HEPES buffer (0.9 mL, 25 mM, 140 mM NaCl, pH 7.4), and 0.1 mL of each compound in DMSO (2.0 mM). The solution was mixed in a test tube that was incubated at 37 °C. […] The supernatant was removed and analyzed by UV/LC–MS.

The nature of a further data set: Stability in PBS pH 7.4. It is filed as physicochemical. Particulars: 500 μM. The procedure: as §1
The target of a further data set is T2, PARP16 (Homo sapiens, UniProt Q8N5Y8).
T2 construct: dockerin domain of Hungateiclostridium thermocellum Cel48s (C); made in house; host or cells: Escherichia coli
T2 sequence (Q8N5Y8 1-322): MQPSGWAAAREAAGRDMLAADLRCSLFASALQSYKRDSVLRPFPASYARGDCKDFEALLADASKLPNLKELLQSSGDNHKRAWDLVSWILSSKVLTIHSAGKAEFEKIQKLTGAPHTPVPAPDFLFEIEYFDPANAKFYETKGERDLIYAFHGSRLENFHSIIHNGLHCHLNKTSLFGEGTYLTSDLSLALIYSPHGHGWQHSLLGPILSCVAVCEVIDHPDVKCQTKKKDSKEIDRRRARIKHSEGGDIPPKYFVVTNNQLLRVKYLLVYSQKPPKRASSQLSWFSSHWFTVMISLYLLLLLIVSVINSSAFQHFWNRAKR
Kind of data set: Proximity-enhanced mono-ART activity assay, PARP16. It is filed as biochemical. Particulars: > less than 50% inhibition. On the procedure:
We therefore had to improve the assay method and developed a homogeneous proximity enhanced assay for mono-ARTs.[47]
The proteins used in Tables 1–3 were produced as described earlier. Dockerin constructs to allow enhanced activity assays for mono-ARTs (Table 4) were produced in Escherichia coli with an N-terminal maltose binding protein (MBP) and a C-terminal dockerin domain from Hungateiclostridium thermocellum Cel48s as described recently.[47]
Inhibition experiments were performed using a homogenous assay measuring NAD+ consumption.[80]−[82] Reactions were carried out in quadruplicate, and IC50 curves were fitted using sigmoidal dose response curve (four variables) in GraphPad Prism version 8.02. […] Assay conditions for PARP2, TNKS2, PARP10, and PARP15 (Tables 1–3) were recently reported.[44] The conditions for the proximity-enhanced mono-ART assays (Table 4) were also reported recently.[47] PARP6 (400 nM) inhibition was measured using the standard buffer (50 mM sodium phosphate pH 7.0) for the enhanced activity assay using 500 nM NAD^+ and 18 h incubation in r.t..

In the next data set the target is T3, PARP2 (Homo sapiens, UniProt Q9UGN5).
T3 construct: made in house
T3 sequence (Q9UGN5 whole entry): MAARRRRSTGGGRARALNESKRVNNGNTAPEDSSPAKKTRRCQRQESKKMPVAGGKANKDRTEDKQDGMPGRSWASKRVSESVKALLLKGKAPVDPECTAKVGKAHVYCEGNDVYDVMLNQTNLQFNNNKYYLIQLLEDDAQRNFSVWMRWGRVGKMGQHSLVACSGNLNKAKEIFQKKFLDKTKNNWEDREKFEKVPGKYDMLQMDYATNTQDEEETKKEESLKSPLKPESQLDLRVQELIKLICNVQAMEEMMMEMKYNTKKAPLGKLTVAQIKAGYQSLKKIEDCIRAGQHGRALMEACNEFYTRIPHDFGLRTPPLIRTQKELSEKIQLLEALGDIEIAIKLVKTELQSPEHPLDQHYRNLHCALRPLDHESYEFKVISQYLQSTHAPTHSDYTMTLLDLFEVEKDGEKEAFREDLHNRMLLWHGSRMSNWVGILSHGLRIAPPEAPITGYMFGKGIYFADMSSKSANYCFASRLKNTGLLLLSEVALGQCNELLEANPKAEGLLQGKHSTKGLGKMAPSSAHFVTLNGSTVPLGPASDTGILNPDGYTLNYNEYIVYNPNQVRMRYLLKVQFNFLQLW
Kind of data set: biochemical. Format: biochemical. To be noted: > = less than 50% inhibition at highest concentration; ≫ = no inhibition; read-out: PARP2 IC50.

As a reminder, the Papp is the rate of passage across a membrane or cell layer, normalised by area and donor concentration. A higher Papp goes with fast passage. As a reminder, the IC50 is the concentration that inhibits the measured activity by half. In the case of `Cc1ccc2c(c1)sc1nnc(N)n12` [Compound 21, 7-Methyl[1,2,4]triazolo[3,4-b][1,3]benzothiazol-3-amine], the “stab. in MeOH” value in “Stability in MeOH” is greater than 24 h. The “inhibition of auto-MARylation of overexpressed PARP10 in cells” value against PARP10 is “effectively inhibited”. For the same compound, in data set [1], the “BBB RM % (retention membrane percentage)” value was determined as 5.3% and the Papp at 5 h, 500 μM came out at 4.75 nm/s. Moreover, the “stab in human plasma” value in data set [2] was greater than 24 h. Further, the “stab in PBS pH 7.4” value in “Stability in PBS pH 7.4” is greater than 24 h. Also, at PARP16, the IC50 is 5.2 µM.
Turning to `COc1ccc(OC)c2c1sc1nnc(N)n12` [Compound 27, 5,8-Dimethoxy[1,2,4]triazolo[3,4-b][1,3]benzothiazol-3-amine], the “stab. in MeOH” value in “Stability in MeOH” was greater than 24 h. At PARP10, the “inhibition of auto-MARylation of overexpressed PARP10 in cells” value was “effectively inhibited”. In addition, in data set [1], the “BBB RM % (retention membrane percentage)” value was found to be 3.4% and the Papp at 5 h, 500 μM was 1.43 nm/s. Also, the “stab in human plasma” value in data set [2] is greater than 24 h. The IC50 at PARP2 came to 10 µM. The “stab in PBS pH 7.4” value in the data set “Stability in PBS pH 7.4” is recorded as greater than 24 h. The IC50 at PARP16 is 3.4 µM.

The values are drawn from paper PMC9884089 (Journal of Medicinal Chemistry, 2023).
